# Data from US20060293295A1, “Pharmaceutical composition comprising progestogens and/or estrogens and 5-methyl- (6S)-tetrahydrofolate” (priority 2005, published 2006).
# Read-outs that look alike come from different tables or passages of the source.
# How the values were obtained:
# [1] = Compatibility investigation of binary mixtures with vitamin B12 by DSC; assay type: physicochemical; parameters: key to Compatibility: ++ good compatibility expected below the stated temperature; + compatibility below the stated temperature; ++/− indifferent compatibility, possibly good compatibility below the stated temperature; +/−− indifferent compatibility, appears to be compatible below the stated temperature; −(−−−) (strong) interaction, incompatible; −(−−−) (strong) interaction, incompatible; conditions: for Compatibility: binary mixture with vitamin B12, DSC, various gases and temperatures, stated temperature is 60° C. where given; for Comments: binary mixture with vitamin B12, cells wrap, all except Drospirenone and Ethinylestradiol ('very O2-sensitive') continue 'moisture-sensitive'
# Protocol: Both vitamin B12 and 5-methyl-(6S)-tetrahydrofolate are unstable in the presence of atmospheric oxygen and humidity. […] Measurements of the incompatibilities between the intended formulation ingredients were carried out by a thermoanalytical method (DSC, differential scanning calorimetry). This allows incompatibilities to be recognized through low enthalpies of fusion and melting temperatures. These are caused for example by a reduced proportion of crystalline substance and the increase in impurities. In the determination, binary mixtures of excipients or active ingredients in each case with vitamin B12 were investigated, and the compatibility was examined under the influence of various gases and temperatures. […]
# [2] = Protocol: The investigated formulation was prepared (process 2) by mixing the ingredients, granulating with the part of the corn starch used as binder, absorbing the 5-methyl-(6S)-tetrahydrofolate after completion of the granulation process, renewed mixing and tableting. By comparison therewith, polyvinylpyrrolidone was added as binder instead of corn starch to the formulation by process 3.
# The difference between process 1 and process 2 derives from the time at which the 5-methyl-(6S)-tetrahydrofolate was added during the preparation of the investigated tablet. In process 1, the 5-methyl-(6S)-tetrahydrofolate was present in the mixture even during the granulation, whereas in process 2 it was absorbed only after the granulation.
# [3] = one month
# Description: An oral formulation is normally prepared by granulation, tableting and film-coating.
# [4] = 50 rpm, 37° C., 0.03 percent aqueous ascorbic acid solution
# Protocol: For this purpose, the tablets were investigated in an in vitro dissolution test using a USP paddle apparatus at 50 rpm and 37° C. in a 0.03 percent aqueous ascorbic acid solution.
# [5] = intake at the right time around conception; cited from earlier work
# [6] = of Metafolin content per tablet immediately after preparation
# [7] = per tablet, of specified content 100%, immediately after preparation, average
# [8] = vials closed, listed as 5-methyl-(6S)-tetrahydrofolate
compound,measurement,setting,value
C[C@]12CCC(=O)C=C1[C@@H]1C[C@@H]1[C@H]1[C@@H]3[C@@H]4C[C@@H]4[C@@]4(CCC(=O)O4)[C@@]3(C)CC[C@@H]12 [Drospirenone],Compatibility,[1],+
same,Comments,[1],O2-sensitive
OC[C@H]1O[C@@H](O[C@H]2[C@H](O)[C@@H](O)C(O)O[C@@H]2CO)[C@H](O)[C@@H](O)[C@H]1O (stereo partly drawn) [Lactose],Compatibility,[1],+
same,Comments,[1],"O2-sensitive,"
CN1c2c(nc(N)[nH]c2=O)NC[C@@H]1CNc1ccc(C(=O)N[C@@H](CCC(=O)O)C(=O)O)cc1 [Metafolin],"Distribution coefficient, absorption (process 2)",[2]; [6],2.5
same,"Distribution coefficient, granulation (process 1)",[2]; [6],6.1
same,Metafolin content granulation (process 1),"[2]; per tablet, immediately after preparation, average",88.5%
same,"Metafolin content absorption, PVP (process 3)",[2]; [7],90.5%
same,"Metafolin content absorption, corn starch (process 2)",[2]; [7],96.1%
same,Metafolin content 25° C./60% rH absorption (process 2),[3]; vials closed,92.5%
same,Metafolin content 25° C./60% rH granulation (process 1),[3]; vials closed,74.5%
same,Metafolin content 40° C./75% rH absorption (process 2),[3]; vials closed,90.1%
same,Metafolin content 40° C./75% rH granulation (process 1),[3]; vials closed,58.9%
same,Metafolin content 40° C./75% rH absorption (process 2),[3]; [8],above 90%
same,Metafolin content 40° C./75% rH granulation (process 1),[3]; [8],~60%
same,Metafolin content 25° C./60% rH absorption PVP (process 3),[3]; vials open,89.5%
same,Metafolin content 25° C./60% rH absorption corn starch (process 2),[3]; vials open,92.1%
same,Metafolin content 25° C./60% rH granulation (process 1),[3]; vials open,63.2%
same,Metafolin content 40° C./75% rH absorption PVP (process 3),[3]; vials open,37.7%
same,Metafolin content 40° C./75% rH absorption corn starch (process 2),[3]; vials open,67.7%
same,Metafolin content 40° C./75% rH granulation (process 1),[3]; vials open,43.4%
same,5-Methyl-(6S)-tetrahydrofolate process 1 dissolution [%],[4]; 0 min,0%
same,5-Methyl-(6S)-tetrahydrofolate process 2 dissolution [%],[4]; 0 min,0%
same,5-Methyl-(6S)-tetrahydrofolate process 1 dissolution [%],[4]; 10 min,59.2%
same,5-Methyl-(6S)-tetrahydrofolate process 2 dissolution [%],[4]; 10 min,81.4%
same,5-Methyl-(6S)-tetrahydrofolate process 1 dissolution [%],[4]; 15 min,66.8%
same,5-Methyl-(6S)-tetrahydrofolate process 2 dissolution [%],[4]; 15 min,89.3%
same,5-Methyl-(6S)-tetrahydrofolate process 1 dissolution [%],[4]; 30 min,73.1%
same,5-Methyl-(6S)-tetrahydrofolate process 2 dissolution [%],[4]; 30 min,91.3%
same,5-Methyl-(6S)-tetrahydrofolate process 1 dissolution [%],[4]; 45 min,76.7%
same,5-Methyl-(6S)-tetrahydrofolate process 2 dissolution [%],[4]; 45 min,91.1%
same,5-Methyl-(6S)-tetrahydrofolate process 1 dissolution [%],[4]; 60 min,75.8%
same,5-Methyl-(6S)-tetrahydrofolate process 2 dissolution [%],[4]; 60 min,91.2%
Nc1nc2ncc(CNc3ccc(C(=O)N[C@@H](CCC(=O)O)C(=O)O)cc3)nc2c(=O)[nH]1 [folic acid],reduction of neural tube defects,[5],50-70%
Magnesium stearate,Compatibility,[1],++/−
same,Comments,[1],"O2-sensitive,"
